25 molecules from the supplement of paper PMC10290057 can be followed below.

The subject of experiment [1] is HCT116. As to the kind of experiment: AC50 cell viability (CellTiter-Glo); higher = less potent. To be noted: 48 h. (In general: Cellular ATP, detected with luciferase, serves as a proxy for viable cell number.)
Experiment [2] concerns HCT116. As to the kind of experiment: efficacy (fitted maximal change in viability relative to DMSO control); higher = less cytotoxic (negative = loss of viability). The following applies: 48 h.
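Wherever AC50 cell viability (CellTiter-Glo) is given: HCT116 colorectal carcinoma cells screened at five concentrations per compound, luminescent viability scaled between DMSO wells and empty wells on each plate, curves fitted per compound.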
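Wherever efficacy (fitted maximal change in viability relative to DMSO control) is given: Luminescence-based viability readout, five doses per compound, normalized against on-plate DMSO and empty-well controls, followed by dose-response curve fitting for every drug.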

In the experiment on HCT116 [1], `CC[P](CC)(CC)=[Au][S][C@@H]1O[C@H](COC(C)=O)[C@@H](OC(C)=O)[C@H](OC(C)=O)[C@H]1OC(C)=O` [Auranofin] gave an AC50 cell viability of 2.63 µM. In addition, in the experiment on HCT116 [2], the efficacy is -100%.
`CCN1CCN(C(=O)Cc2ccc(Nc3ncc(F)c(Nc4ccc(C(=O)Nc5ccccc5Cl)cc4)n3)cc2)CC1` [Aurora A Inhibitor I] gave an AC50 cell viability in the experiment with HCT116 [1] of 7.42 µM. Moreover, the efficacy in the experiment on HCT116 [2] was -105%.
In the experiment with HCT116 [1], `CC(C)c1cc(C(C)C)c(CC(=O)N[S+](=O)([O-])Oc2c(C(C)C)cccc2C(C)C)c(C(C)C)c1` [Avasimibe] returned an AC50 cell viability of 14.8 µM. For the same molecule, the efficacy in the experiment on HCT116 [2] is -82.3%.
In turn, `C=CC(=O)Nc1cccc(Oc2nc(Nc3ccc(N4CCN(C)CC4)c(F)c3)nc3[nH]ccc23)c1` [Avitinib] registered an AC50 cell viability in the experiment on HCT116 [1] of 13.2 µM. Besides, the efficacy in the experiment with HCT116 [2] is -123%.
For `CNC(=O)c1ccccc1Sc1ccc2c(/C=C/c3ccccn3)n[nH]c2c1` [Axitinib] the same measures were 14.8 µM and -80.4%.
In the case of `Cn1cnc([N+](=O)[O-])c1Sc1ncnc2nc[nH]c12` [Azathioprine], the AC50 cell viability in the experiment with HCT116 [1] was 2.63 µM. In the experiment with HCT116 [2], the efficacy is -83.7%.
For `COc1ccc(N(C)c2nc(C)nc3ccccc23)cc1` [Azixa] the same measures were 0.00372 µM and -64.3%.
For `CCc1cc(/C(C)=N/OCc2ccc(C3CCCCC3)c(C(F)(F)F)c2)ccc1CN1CC(C(=O)O)C1` [BAF-312] the same measures were 20.9 µM and -66.2%.
For `Cc1nc2cnc3ccc(C#Cc4cccnc4)cc3c2n1-c1ccc(C(C)(C)C#N)cc1` [BAG-956] the same measures were 1.18 µM and -92.6%.
With `COc1ccc(-c2cc3nccn3c(Nc3ncccc3C(N)=O)n2)cc1OC` [BAY61-3606], the AC50 cell viability with HCT116 [1] is 4.17 µM. Further, in the experiment with HCT116 [2], the efficacy is -66.9%.
For `Nc1nc(-c2nn(Cc3ccccc3F)c3ncccc23)ncc1C1CC1` [BAY-41-2272] the same measures were 1.05 µM and -51.2%.
In the experiment with HCT116 [1], `CC1=NN=C(C[C@@H]2\C=C(C3=CC=C(Cl)C=C3)/C4=CC=CC=C4[N]5C(=NN=C25)C)O1` [BAY-356] came in with an AC50 cell viability of 0.934 µM. Also, in the experiment with HCT116 [2], the efficacy is -72.7%.
The matching figures for `Cc1c(NC(=O)c2cc(C(N)=O)nc3cc(F)ccc23)c(C(F)(F)F)nn1Cc1ccc(C#N)cc1` [BAY-876]: 4.68 µM and -89.3%.
The matching figures for `Cn1c(=O)n(-c2ccc(C(C)(C)C#N)cc2)c2c3cc(-c4cnc5ccccc5c4)ccc3ncc21` [BEZ-235]: 0.135 µM and -60.5%.
For `CC1(C)C(=O)N(c2ccc(C#N)c(C(F)(F)F)c2)C(=S)N1Cc1ccc(-c2c[nH]nn2)cc1` [BG-15a] the same measures were 20.9 µM and -68.8%.
On to `C=CC(=O)N1CCC(C2CCNc3c(C(N)=O)c(-c4ccc(Oc5ccccc5)cc4)nn32)CC1` (stereo not given) [BGB-3111], for which, in the experiment with HCT116 [1], the AC50 cell viability was determined as 18.6 µM. Also, the efficacy with HCT116 [2] is -62.4%.
The matching figures for `O=[N+]([O-])c1cnc(Sc2nnc(O)n2-c2ccc3c(c2)OCCO3)s1` [BI-78D3]: 11.8 µM and -94.7%.
On to `COC1=C(CN(C)C)C=C(OC)C(=C1)C/2=C/N(C)C(=O)C3=C2C=CN=C3` [BI-9564], for which the AC50 cell viability in the experiment with HCT116 [1] was determined as 14.8 µM. The efficacy with HCT116 [2] was -71.5%.
For `CCCCCCOC(=O)/N=C(/N)c1ccc(NCc2nc3cc(C(=O)N(CCC(=O)OCC)c4ccccn4)ccc3n2C)cc1` [BIBR-1048] the same measures were 18.6 µM and -59.4%.
For the molecule `O=C1Nc2cc(Br)ccc2/C1=C1/Nc2ccccc2/C1=N\O` [BIO], the AC50 cell viability in the experiment on HCT116 [1] was found to be 10.5 µM. The efficacy in the experiment on HCT116 [2] is -102%.
`Nc1cc(C(F)(F)F)c(-c2cc(N3CCOCC3)nc(N3CCOCC3)n2)cn1` [BKM-120]: the AC50 cell viability in the experiment on HCT116 [1] stood at 1.66 µM. The efficacy in the experiment with HCT116 [2] was -71.8%.
The matching figures for `CNC(=O)c1cc(Oc2ccc3nc(N[C@@H]4CCCC[C@H]4O)sc3c2)ccn1` [BLZ-945]: 20.9 µM and -41.8%.
On to `NC(=O)c1ccc2[nH]c(-c3ccc(Oc4ccc(Cl)cc4)cc3)nc2c1` [BML-277], for which the AC50 cell viability in the experiment on HCT116 [1] was determined as 18.6 µM. The efficacy with HCT116 [2] was -67.3%.
On to `FC1=CC=C(C=C1)N2/C=C\C=C(C(=O)NC3=CC=C(OC4=C5C=C[NH]C5=NC=C4)C(=C3)F)/C2=O` [BMS-2], for which the AC50 cell viability in the experiment with HCT116 [1] came out at 18.6 µM. Besides, in the experiment with HCT116 [2], the efficacy was -37.8%.
Take `O=C(Nc1ncc(-c2cc(C(F)F)nn2-c2c(Cl)cccc2Cl)s1)C1CC1` [BMS-3]: the AC50 cell viability in the experiment on HCT116 [1] was determined as 0.833 µM. The efficacy with HCT116 [2] is -68%.
